# Data from PMC2725291, “Genetic and Molecular Basis of Individual Differences in Human Umami Taste Perception” (PLoS ONE, 2009).
# Test system: 254 Japanese subjects
# Assay: Taste recognition threshold measurement (staircase method)
# Type: in vivo, human
# Details: for mean recognition threshold by Gaussian fit analysis: center±S.E. of gaussian curve
# From the text: A total of 254 healthy, non-obese, non-diabetic Japanese volunteers [male/female: 141/113, age: 20–36, body mass index (BMI); 16.5–24.8] participated in this study. The purpose of the study as well as the methods and procedure were explained to the participants and the patients in this manuscript have given written informed consent. All protocols were approved by the local ethics committee at Kyushu University. Subjects were asked to refrain from consuming alcohol the day before testing, caffeine on the day of testing, and food during the experimentation period. The inclusion criteria were satisfactory state of oral hygiene, non-smoking, regular work, sleep, and meal schedules.
# As MSG contains sodium, great care was taken to compare individual sensitivities to MSG relative to NaCl. […] The differences in concentrations in the present study were in 0.3 log steps, which mean step-wise increases in concentration by a factor of 2.0. All solutions were made up in distilled water and used at room temperature. The testing procedure was the staircase-method modified from Pasquet et al.. Each subject evaluated all 7 tastants. The seven series of solutions were presented one after another within a single section. Within each series, the solutions with each 2.0 ml were applied to the whole tongue of each subject with a pipet in order of ascending concentrations. The subjects were asked not to swallow test solutions and rinse their mouth between two solutions with distilled water. The subject was requested to correctly name the taste quality in each series. Once the taste of two successive concentrations was recognized successfully, the subject was given the previous unrecognized concentration (first reversal). The points at which concentration sequence changed from a decrease to an increase or vice versa were designated “reversals”. The procedure was terminated after five reversals, and the threshold was calculated as the mean of the concentration values of the last four reversals.
# Student's t-test was used for detection of differences in the mean recognition thresholds between males and females. The χ^2 test was used for checking Hardy-Weinberg Equilibrium (HWE) for the genotype frequencies in samples to control genotyping errors, for detection of differences in genotype and allele frequencies between high and low taste recognition threshold groups. Yates'χ^2 test was used when the number was less than 10. The mean values (the center±S.E. of gaussian curve on X-axis) in the distribution of recognition thresholds defined by TAS1R1/TAS1R3 haplotypes (TAS1R1-372A/TAS1R3-757R homozygotes, TAS1R1-372T/TAS1R3-757R homozygotes, homo- and heterozygotes containing TAS1R3-757C) were calculated using gauss fit function of Origin 5.0 (OriginLab Corp). For Ca^2+ imaging analysis, data were normalized to response to 10 µM ISO, and mean values (±S.E.) were calculated from 10∼18 independent analyses. EC50 values were calculated from individual cumulative concentration-response data using sigmoid fit functions of Origin 5.0. One factor ANOVAs were conducted for detection of differences in the distributions of recognition thresholds for umami substances among 3 groups defined by TAS1R1/TAS1R3 haplotypes, and in the responses to 5, 20 and 50 mM MSG or 0.3, 5 and 50 mM M+I among TAS1R1/TAS1R3 variants in Ca^2+ imaging analysis. When the ANOVA was significant, post-hoc Student's t-test or Fisher's PLSD test was performed to compare individual means at each umami compound or concentration. Significance level was 0.05.
smiles,measurement,setting,value
"N[C@@H](CCC(=O)O)C(=O)[O-].[Na+] [MSG, monosodium glutamate]",mean recognition threshold by Gaussian fit analysis,AR homozygotes (372A/757R),7.51 ± 0.44 mM
same,mean (±S.E.) recognition threshold,"AR homozygotes (372A/757R, n = 84)",6.23 ± 0.45 mM
same,mean recognition threshold by Gaussian fit analysis,TR homozygotes (372T/757R),4.38 ± 0.29 mM
same,mean (±S.E.) recognition threshold,"TR homozygotes (372T/757R, n = 37)",4.65 ± 0.47 mM
same,difference of mean recognition thresholds among 3 groups divided by TAS1R1-A372T and TAS1R3-R757C haplotypes,TR<AR<TAS1R3-757C,2∼3 fold
same,mean (±S.E.) recognition threshold,"all subjects (254 Japanese, both genders)",7.66 ± 0.43 mM
same,mean recognition threshold,female subjects,6.91 ± 0.62 mM
same,mean (±S.E.) recognition threshold,homo- and heterozygotes containing TAS1R3-757C (n = 39),8.43 ± 0.98 mM
same,mean recognition threshold by Gaussian fit analysis,homo- and heterozygotes containing TAS1R3-757C,8.60 ± 0.20 mM
same,mean recognition threshold,male subjects,8.27 ± 0.60 mM
